This is an account of results in patent US20230107642A1 (Erasca, Inc., priority 2020, published 2023).

The data set in a line: Determination of total drug concentration in rat brain (BBB penetration). The format is in vivo. To be noted: male SD rat, 2 mg/kg IV infusion for 4 hours, brain collected at end of 4 hours. How it is done: BB. Example 9: Determination of Total Drug Concentration in Rat Brain
In Vivo Experimental Procedures
Infuse male SD rat at 2 mg/kg dose for 4 hours through IV administration route. Collect brain tissues at the end of 4 hours.
Sample Preparation Procedures
Dilute brain tissue by adding homogenization solvent (1:4, w/v). Homogenize diluted brain tissue samples. Extract analyte by adding organic solvent (1:4, v/v) with spiked internal standard. Vortex and centrifuge the samples. Remove supernatant and dilute with HPLC compatible solvent (1:3, v/v).
Inject diluted extract into LC-MS/MS system using reversed phase high performance liquid chromatography coupled with electrospray ionization and selected reaction monitoring. Determine the total drug concentration in brain samples by quantitating against the standard curve prepared using the same matrix.
The following data provides blood brain barrier (BBB) penetration activity for a selection of inventive compounds where were directly compared to sotorasib and adagrasib (concentration in brain measured in ng/g).
Compounds that were measured as having a total concentration in the brain of at least 60 ng/g are indicated as “+”.

Structures are written as SMILES.

Regarding `C=CC(=O)N1CCN(c2nc(=O)n3c4c(c(-c5ccc(F)cc5F)c(C(F)(F)F)cc24)SC[C@H](OC)C3)CC1` [Example 13-37], the BBB activity entry was “+ (Compounds that were measured as having a total concentration in the brain of at least 60 ng/g are indicated as “+”)”.
With `C=CC(=O)N1C[C@H](C)N(c2nc(=O)n3c4c(c(-c5ccc(F)cc5F)c(Cl)cc24)OCC3CN(C)C)C[C@H]1C` (some centres unmarked) [Example 13-38] the entry was “+ (Compounds that were measured as having a total concentration in the brain of at least 60 ng/g are indicated as “+”)”.
For `C=CC(=O)N1[C@H](C)CN(c2nc(=O)n3c4c(c(-c5ccc(F)cc5)c(C(F)(F)F)cc24)SC[C@@H](OC)C3)C[C@@H]1C` [Example 13-40], the BBB activity result is recorded as “+ (Compounds that were measured as having a total concentration in the brain of at least 60 ng/g are indicated as “+”)”.
With `C=CC(=O)N1[C@H](C)CN(c2nc(=O)n3c4c(c(-c5ccc(F)cc5)c(C(F)(F)F)cc24)SC[C@H](OCC)C3)C[C@@H]1C` [Example 13-41], the BBB activity result is on record as “+ (Compounds that were measured as having a total concentration in the brain of at least 60 ng/g are indicated as “+”)”.
For the compound `C=CC(=O)N1[C@H](C)CN(c2nc(=O)n3c4c(c(-c5cc(Br)c(F)cc5F)c(C(F)(F)F)cc24)SC[C@@H](Oc2cnccn2)C3)C[C@@H]1C` [Example 13-42], the BBB activity result is recorded as “+ (Compounds that were measured as having a total concentration in the brain of at least 60 ng/g are indicated as “+”)”.
With `C=CC(=O)N1CCN(c2nc(=O)n3c4c(c(-c5ccc(F)cc5F)c(Cl)cc24)SCC3)[C@@H](C)C1` [Example 13-43] the entry was “+ (Compounds that were measured as having a total concentration in the brain of at least 60 ng/g are indicated as “+”)”; with `C=CC(=O)N1[C@H](C)CN(c2nc(=O)n3c4c(c(-c5cc(Cl)c(F)cc5F)c(C(F)(F)F)cc24)SC[C@@H]3CN2C[C@@H]3C[C@H]2CO3)C[C@@H]1C` [Example 13-46], “+ (Compounds that were measured as having a total concentration in the brain of at least 60 ng/g are indicated as “+”)”; with `C=CC(=O)N1[C@H](C)CN(c2nc(=O)n3c4c(c(-c5ccc(F)cc5)c(C(F)(F)F)cc24)SC[C@H](c2ccccc2)C3)C[C@@H]1C` [Example 13-47], “− (Compounds that did not meet this threshold are indicated as “−”)”.
The result for `C=CC(=O)N1[C@H](C)CN(c2nc(=O)n3c4c(c(-c5ccc(F)cc5)c(C(F)(F)F)cc24)SC[C@@H](OCC2CC2)C3)C[C@@H]1C` [Example 13-48] reads “− (Compounds that did not meet this threshold are indicated as “−”)”; that for `C=CC(=O)N1[C@H](C)CN(c2nc(=O)n3c4c(c(-c5cc(Cl)c(F)cc5F)c(C(F)(F)F)cc24)SC[C@@H]3COCOC)C[C@@H]1C` [Example 13-50], “− (Compounds that did not meet this threshold are indicated as “−”)”.
In the case of `C=CC(=O)N1C[C@H](C)N(c2nc(=O)n3c4c(c(-c5ccc(F)cc5F)c(C(F)(F)F)cc24)SCC2(COC2)C3)C[C@H]1C` [Example 13-51], the BBB activity result is recorded as “− (Compounds that did not meet this threshold are indicated as “−”)”.
Consider `C=CC(=O)N1C[C@H](C)N(c2nc(=O)n3c4c(c(-c5ccc(F)cc5)c(Cl)cc24)OCC3CN(C)C)C[C@H]1C` (some centres unmarked) [Example 13-53], for which the BBB activity result was “− (Compounds that did not meet this threshold are indicated as “−”)”.
The result for `[2H]C1([2H])N(C(=O)C=C)C([2H])([2H])C([2H])([2H])N(c2nc(=O)n3c4c(c(-c5cc(Cl)c(F)cc5F)c(C(F)(F)F)cc24)SCC2(COC2)C3)C1([2H])[2H]` [Example 13-54] reads “− (Compounds that did not meet this threshold are indicated as “−”)”; that for `C=CC(=O)N1[C@H](C)CN(c2nc(=O)n3c4c(c(-c5ccc(F)cc5)c(C(F)(F)F)cc24)SC[C@@H](OCC)C3)C[C@@H]1C` [Example 13-55], “− (Compounds that did not meet this threshold are indicated as “−”)”.
